The results in this text go back to ChEMBL document CHEMBL5678795 (Eur J Pharmacol, 1999).

Test [1] addresses Muscarinic acetylcholine receptor M5 (Homo sapiens) (UniProt P08912). Put plainly: Displacement of [3H]4-DAMP from human recombinant muscarinic M5 receptor at 10 uM incubated for 60 mins by radiometric based scintillation counter assay relative to control.
Test [2] addresses Endothelin receptor type B (Sus scrofa, UniProt P35463). As to the kind of experiment: Displacement of [125I]endhothelin-3 from ETB receptor in porcine Cerebellum Membrane at 25 degC incubated for 3 hrs by radioligand competition binding assay. It counts as cell membranes.
The next test is filed under the species Rattus norvegicus. As to the kind of experiment: Displacement of [3H]RX 821002 from rat brain […] at 10 uM incubated for 60 mins by radiometric based scintillation counter assay relative to control. It counts as tissue-based.
In test [3] the target is T1, Endothelin-1 receptor (Rattus norvegicus) (UniProt P26684).
T1 sequence (whole entry): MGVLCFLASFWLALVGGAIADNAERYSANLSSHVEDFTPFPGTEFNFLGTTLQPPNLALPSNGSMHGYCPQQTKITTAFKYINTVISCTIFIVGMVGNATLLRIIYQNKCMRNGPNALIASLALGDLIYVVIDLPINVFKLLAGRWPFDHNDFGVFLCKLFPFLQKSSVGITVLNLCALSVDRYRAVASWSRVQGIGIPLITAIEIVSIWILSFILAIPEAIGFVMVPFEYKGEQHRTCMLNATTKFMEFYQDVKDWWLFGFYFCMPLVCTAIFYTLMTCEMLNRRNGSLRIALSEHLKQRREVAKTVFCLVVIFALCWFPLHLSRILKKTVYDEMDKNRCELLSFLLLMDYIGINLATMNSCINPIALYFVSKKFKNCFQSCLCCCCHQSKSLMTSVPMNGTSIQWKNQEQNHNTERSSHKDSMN
Put plainly: In vivo antagonist activity to ETA receptor in endothelin-1 induced Sprague-Dawley rat assessed as inhibition of transient depressor response at 10 to 30 mg/kg, po administered for 4 hrs. The format is functional, organism-based. The note with it: dose 10-30 mg/kg.

Test [4] deals with Endothelin receptor type B (Oryctolagus cuniculus, UniProt Q9N0W7). Put plainly: Antagonist activity to ETB receptor in sarafotoxin-6c stimulated rabbit pulmonary artery assessed as induction of vessel ring contraction preincubated for 15 mins. The format is functional, tissue-based. The settings on record: read-out: pA2 (converted).
For test [5], the target named is Neurotensin receptor type 1 (Homo sapiens) (UniProt P30989). Put plainly: Displacement of [125I]Tyr3-neurotensin from human recombinant Neurotensin receptor at 10 uM incubated for 60 mins by radiometric based scintillation counter assay relative to control.
Test [6] addresses Translocator protein (Homo sapiens) (UniProt P30536). As to the kind of experiment: Displacement of [3H] PK 11195 from peripheral-type benzodiazepine (unknown origin) at 10 uM incubated for 15 mins by radiometric based scintillation counter assay relative to control.
The target of test [7] is 5-hydroxytryptamine receptor 2A (Homo sapiens) (UniProt P28223). Put plainly: Displacement of [3H]ketanserin from human recombinant 5-Hydroxytryptamine 2A at 10 uM incubated for 60 mins by radiometric based scintillation counter assay relative to control.
For test [8], the target named is T1, Endothelin-1 receptor (Rattus norvegicus). As to the kind of experiment: In vivo antagonist activity to ETA receptor in endothelin-1 induced Sprague-Dawley rat assessed as reduction of vasopressor response at 30 mg/kg, po administered for 4 to 8 hrs. The settings on record: time 4-8 hrs. It counts as functional, organism-based.
The target of test [9] is T2, Endothelin-1 receptor (Homo sapiens) (UniProt P25101).
T2 sequence (whole entry): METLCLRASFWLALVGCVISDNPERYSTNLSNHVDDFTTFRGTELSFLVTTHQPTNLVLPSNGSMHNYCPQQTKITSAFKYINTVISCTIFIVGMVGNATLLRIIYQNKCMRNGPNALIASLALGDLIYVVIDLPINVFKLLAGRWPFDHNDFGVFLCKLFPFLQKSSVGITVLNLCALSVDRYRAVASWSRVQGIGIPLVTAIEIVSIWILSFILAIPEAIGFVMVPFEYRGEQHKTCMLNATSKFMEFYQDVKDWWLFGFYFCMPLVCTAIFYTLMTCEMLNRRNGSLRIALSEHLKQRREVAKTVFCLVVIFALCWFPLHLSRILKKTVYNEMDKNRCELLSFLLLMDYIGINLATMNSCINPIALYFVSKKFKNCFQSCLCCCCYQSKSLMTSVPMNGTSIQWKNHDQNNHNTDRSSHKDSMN
As to the kind of experiment: Displacement of [125I]endhothelin-1 from human ETA receptor stably expressed in CHO cells Membrane assessed as maximum binding at 25 degC at 0.25 to 1.0 nM incubated for 4 hrs by saturation binding assay. It counts as cell membranes. The note with it: dose 0.25-1 nM.

Test [10] is filed under the species Homo sapiens. Put plainly: Displacement of [35S]TBPS to GABA channel Chloride ionophore binding site (unknown origin) at 10 uM by radioligand binding assay relative to control. The settings on record: filed as antagonist.
Test [11] has as its target Histamine H1 receptor (Homo sapiens) (UniProt P35367). Put plainly: Displacement of [3H]pyrilamine from human recombinant central-type histamine H1 receptor at 10 uM incubated for 60 mins by radiometric based scintillation counter assay relative to control.
Test [12] deals with Adenosine receptor A3 (Homo sapiens) (UniProt P0DMS8). As to the kind of experiment: Displacement of [125I]AB-MECA from human recombinant adenosine A3 receptor at 10 uM incubated for 120 mins by radiometric based scintillation counter assay relative to control.
Test [13] deals with Adenosine receptor A2a (Homo sapiens) (UniProt P29274). Put plainly: Displacement of [3H]CGS 21680 from human recombinant Adenosine A2A receptor at 10 uM incubated for 120 mins by radiometric based scintillation counter assay relative to control.
Test [14] addresses Muscarinic acetylcholine receptor M2 (Homo sapiens) (UniProt P08172). Put plainly: Displacement of [3H]AF-DX 384 from human recombinant muscarinic M2 receptor at 10 uM incubated for 60 mins by radiometric based scintillation counter assay relative to control.
The target in test [15] is Cholecystokinin receptor type A (Homo sapiens) (UniProt P32238). As to the kind of experiment: Displacement of [125I]CCK-8s from human recombinant cholecystokinin A receptor at 10 uM incubated for 60 mins by radiometric based scintillation counter assay relative to control.
The target in test [16] is D(1B) dopamine receptor (Homo sapiens) (UniProt P21918). Put plainly: Displacement of [3H]SCH 23390 from human recombinant dopamine D5 receptor at 10 uM incubated for 60 mins by radiometric based scintillation counter assay relative to control.
Test [17] has as its target Interleukin-1 beta (Homo sapiens) (UniProt P01584). Put plainly: Inhibition of Interleukin-1beta (unknown origin) at 10 uM by radioligand binding assay relative to control.
For test [18], the target named is D(4) dopamine receptor (Homo sapiens) (UniProt P21917). As to the kind of experiment: Displacement of [3H]methyl-spiperone from human recombinant dopamine D4 receptor at 10 uM incubated for 60 mins by radiometric based scintillation counter assay relative to control.
For test [19], the species on record is Homo sapiens. Put plainly: Displacement of [3H] PK 11195 from central-type benzodiazepine (unknown origin) at 10 uM incubated for 15 mins by radiometric based scintillation counter assay relative to control.
Test [20] addresses Substance-P receptor (Homo sapiens) (UniProt P25103). As to the kind of experiment: Displacement of [125I]-Substance P LYS3 from human Neurokinin-1 receptor at 10 uM incubated for 30 mins by radiometric based scintillation counter assay relative to control.
The target in test [21] is Delta-type opioid receptor (Homo sapiens) (UniProt P41143). Put plainly: Displacement of [3H]DPDPE from human recombinant delta-Opioid receptor at 10 uM incubated for 60 mins by radiometric based scintillation counter assay relative to control. The settings on record: filed as antagonist.

SMILES strings stand for the structures. The source made the active and inactive calls. The rule behind the calls is not given here.

D(4) dopamine receptor (Homo sapiens), sequence (P21917 whole entry): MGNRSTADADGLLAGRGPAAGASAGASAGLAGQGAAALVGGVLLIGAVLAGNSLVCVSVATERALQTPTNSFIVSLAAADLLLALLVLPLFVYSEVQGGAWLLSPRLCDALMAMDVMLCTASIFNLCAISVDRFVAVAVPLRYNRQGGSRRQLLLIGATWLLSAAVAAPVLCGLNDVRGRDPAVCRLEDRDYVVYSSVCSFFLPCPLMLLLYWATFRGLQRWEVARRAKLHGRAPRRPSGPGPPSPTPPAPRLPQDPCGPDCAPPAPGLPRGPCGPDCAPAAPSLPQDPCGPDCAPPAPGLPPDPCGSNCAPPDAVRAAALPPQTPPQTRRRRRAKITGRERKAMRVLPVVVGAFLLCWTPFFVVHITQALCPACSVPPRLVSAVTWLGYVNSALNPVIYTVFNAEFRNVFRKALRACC
Interleukin-1 beta (Homo sapiens), sequence (P01584 117-269 limits assumed): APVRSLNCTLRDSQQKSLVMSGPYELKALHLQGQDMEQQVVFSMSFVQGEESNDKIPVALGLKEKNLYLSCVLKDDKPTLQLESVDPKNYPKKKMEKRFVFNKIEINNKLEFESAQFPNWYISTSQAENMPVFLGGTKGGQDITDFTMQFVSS
Endothelin receptor type B (Sus scrofa, UniProt P35463), sequence (P35463 whole entry): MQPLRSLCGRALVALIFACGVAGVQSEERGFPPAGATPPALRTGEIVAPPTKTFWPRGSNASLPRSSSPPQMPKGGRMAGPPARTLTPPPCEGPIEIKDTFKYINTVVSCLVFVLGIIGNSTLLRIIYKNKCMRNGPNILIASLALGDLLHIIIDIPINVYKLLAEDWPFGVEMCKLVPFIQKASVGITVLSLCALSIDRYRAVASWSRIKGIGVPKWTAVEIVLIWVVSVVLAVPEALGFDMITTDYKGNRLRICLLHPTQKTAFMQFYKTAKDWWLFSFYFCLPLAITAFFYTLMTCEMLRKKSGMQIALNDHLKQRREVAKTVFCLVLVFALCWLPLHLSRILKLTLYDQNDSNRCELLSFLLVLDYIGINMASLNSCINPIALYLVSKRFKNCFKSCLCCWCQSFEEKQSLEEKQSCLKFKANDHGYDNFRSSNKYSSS
Histamine H1 receptor (Homo sapiens), sequence (P35367 whole entry): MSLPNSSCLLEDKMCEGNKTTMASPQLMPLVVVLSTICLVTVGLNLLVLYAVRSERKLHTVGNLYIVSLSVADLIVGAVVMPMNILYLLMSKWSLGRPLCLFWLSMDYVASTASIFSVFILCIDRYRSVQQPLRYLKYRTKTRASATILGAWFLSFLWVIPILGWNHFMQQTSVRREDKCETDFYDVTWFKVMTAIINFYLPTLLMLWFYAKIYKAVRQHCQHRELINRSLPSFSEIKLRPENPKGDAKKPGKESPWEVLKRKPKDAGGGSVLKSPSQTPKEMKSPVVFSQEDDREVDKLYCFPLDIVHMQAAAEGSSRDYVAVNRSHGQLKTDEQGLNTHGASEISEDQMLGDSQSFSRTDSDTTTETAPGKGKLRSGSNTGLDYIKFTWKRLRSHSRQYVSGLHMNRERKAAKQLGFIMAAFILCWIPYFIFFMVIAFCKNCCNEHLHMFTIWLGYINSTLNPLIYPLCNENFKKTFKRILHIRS
D(1B) dopamine receptor (Homo sapiens), sequence (P21918 whole entry): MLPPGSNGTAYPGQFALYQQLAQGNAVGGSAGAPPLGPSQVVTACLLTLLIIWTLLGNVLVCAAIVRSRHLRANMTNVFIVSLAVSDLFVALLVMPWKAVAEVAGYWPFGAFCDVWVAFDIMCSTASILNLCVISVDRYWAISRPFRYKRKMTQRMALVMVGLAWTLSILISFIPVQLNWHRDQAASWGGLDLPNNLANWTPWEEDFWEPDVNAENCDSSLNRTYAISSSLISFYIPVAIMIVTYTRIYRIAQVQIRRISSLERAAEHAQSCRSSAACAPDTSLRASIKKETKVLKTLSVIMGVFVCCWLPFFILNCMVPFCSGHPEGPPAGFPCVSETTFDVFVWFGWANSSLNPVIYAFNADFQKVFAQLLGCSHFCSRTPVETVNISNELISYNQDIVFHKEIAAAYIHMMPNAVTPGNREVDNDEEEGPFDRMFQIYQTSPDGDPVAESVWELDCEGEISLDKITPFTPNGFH
Delta-type opioid receptor (Homo sapiens), sequence (P41143 whole entry): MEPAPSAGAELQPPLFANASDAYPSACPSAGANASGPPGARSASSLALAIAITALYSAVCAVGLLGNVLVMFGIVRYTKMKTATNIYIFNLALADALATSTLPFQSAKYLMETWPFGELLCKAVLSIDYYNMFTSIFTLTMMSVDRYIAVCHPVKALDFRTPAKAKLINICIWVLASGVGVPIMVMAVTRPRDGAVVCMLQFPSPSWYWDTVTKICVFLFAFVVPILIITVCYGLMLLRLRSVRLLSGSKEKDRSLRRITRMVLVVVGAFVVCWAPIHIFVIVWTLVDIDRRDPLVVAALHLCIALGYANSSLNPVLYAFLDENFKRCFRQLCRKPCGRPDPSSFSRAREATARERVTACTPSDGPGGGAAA
Muscarinic acetylcholine receptor M5 (Homo sapiens), sequence (P08912 whole entry): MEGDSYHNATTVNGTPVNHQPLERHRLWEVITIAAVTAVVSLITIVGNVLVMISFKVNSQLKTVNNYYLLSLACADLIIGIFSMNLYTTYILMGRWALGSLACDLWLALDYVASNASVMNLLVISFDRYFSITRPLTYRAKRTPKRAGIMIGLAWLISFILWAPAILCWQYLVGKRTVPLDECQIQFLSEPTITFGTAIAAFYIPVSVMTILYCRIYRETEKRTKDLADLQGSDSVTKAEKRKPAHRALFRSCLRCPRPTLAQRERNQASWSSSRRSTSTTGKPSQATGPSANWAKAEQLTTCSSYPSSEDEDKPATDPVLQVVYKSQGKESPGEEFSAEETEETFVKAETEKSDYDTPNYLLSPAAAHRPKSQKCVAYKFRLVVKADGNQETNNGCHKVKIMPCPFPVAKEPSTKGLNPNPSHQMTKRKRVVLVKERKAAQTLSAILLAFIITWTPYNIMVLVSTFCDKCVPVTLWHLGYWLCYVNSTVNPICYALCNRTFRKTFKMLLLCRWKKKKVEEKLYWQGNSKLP
Neurotensin receptor type 1 (Homo sapiens), sequence (P30989 whole entry): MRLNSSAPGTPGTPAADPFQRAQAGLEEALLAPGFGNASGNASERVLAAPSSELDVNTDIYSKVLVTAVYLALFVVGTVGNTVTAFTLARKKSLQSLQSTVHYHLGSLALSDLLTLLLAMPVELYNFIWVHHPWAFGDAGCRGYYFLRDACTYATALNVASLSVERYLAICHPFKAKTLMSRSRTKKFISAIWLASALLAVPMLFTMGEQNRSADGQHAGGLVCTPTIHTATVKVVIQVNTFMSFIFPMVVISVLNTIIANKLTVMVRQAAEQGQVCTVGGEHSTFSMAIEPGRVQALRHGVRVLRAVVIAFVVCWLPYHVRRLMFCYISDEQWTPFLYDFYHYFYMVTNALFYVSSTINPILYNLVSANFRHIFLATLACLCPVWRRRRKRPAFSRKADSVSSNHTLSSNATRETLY
Translocator protein (Homo sapiens), sequence (P30536 whole entry): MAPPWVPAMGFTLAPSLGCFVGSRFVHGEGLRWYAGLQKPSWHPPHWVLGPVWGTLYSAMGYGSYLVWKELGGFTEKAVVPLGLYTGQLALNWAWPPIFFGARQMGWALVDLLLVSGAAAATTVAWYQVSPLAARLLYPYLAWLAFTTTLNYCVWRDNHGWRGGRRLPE
5-hydroxytryptamine receptor 2A (Homo sapiens), sequence (P28223 whole entry): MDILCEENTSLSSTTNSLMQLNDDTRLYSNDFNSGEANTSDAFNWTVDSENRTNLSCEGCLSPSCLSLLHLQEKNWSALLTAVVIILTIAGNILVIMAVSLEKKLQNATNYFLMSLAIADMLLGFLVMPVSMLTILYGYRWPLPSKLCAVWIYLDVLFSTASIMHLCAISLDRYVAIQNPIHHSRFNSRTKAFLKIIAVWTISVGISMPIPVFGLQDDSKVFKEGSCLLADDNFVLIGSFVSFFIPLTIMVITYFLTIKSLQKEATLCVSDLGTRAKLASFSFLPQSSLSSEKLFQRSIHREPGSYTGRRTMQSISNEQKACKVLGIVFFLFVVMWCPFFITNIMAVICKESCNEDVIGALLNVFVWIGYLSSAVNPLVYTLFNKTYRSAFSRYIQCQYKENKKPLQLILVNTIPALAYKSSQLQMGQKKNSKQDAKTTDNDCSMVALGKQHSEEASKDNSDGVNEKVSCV
Muscarinic acetylcholine receptor M2 (Homo sapiens), sequence (P08172 whole entry): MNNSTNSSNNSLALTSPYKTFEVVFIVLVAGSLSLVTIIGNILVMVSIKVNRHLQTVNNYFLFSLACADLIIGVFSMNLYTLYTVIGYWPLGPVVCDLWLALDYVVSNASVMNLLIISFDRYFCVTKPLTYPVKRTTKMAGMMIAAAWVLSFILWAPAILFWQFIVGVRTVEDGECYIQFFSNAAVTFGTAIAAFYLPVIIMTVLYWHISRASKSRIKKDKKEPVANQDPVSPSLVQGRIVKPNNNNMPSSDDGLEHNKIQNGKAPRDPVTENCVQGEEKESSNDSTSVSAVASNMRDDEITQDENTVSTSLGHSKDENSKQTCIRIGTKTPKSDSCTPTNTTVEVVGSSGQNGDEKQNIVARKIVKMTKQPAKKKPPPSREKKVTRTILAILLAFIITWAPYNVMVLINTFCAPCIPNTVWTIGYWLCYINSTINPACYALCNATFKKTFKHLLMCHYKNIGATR
Substance-P receptor (Homo sapiens), sequence (P25103 whole entry): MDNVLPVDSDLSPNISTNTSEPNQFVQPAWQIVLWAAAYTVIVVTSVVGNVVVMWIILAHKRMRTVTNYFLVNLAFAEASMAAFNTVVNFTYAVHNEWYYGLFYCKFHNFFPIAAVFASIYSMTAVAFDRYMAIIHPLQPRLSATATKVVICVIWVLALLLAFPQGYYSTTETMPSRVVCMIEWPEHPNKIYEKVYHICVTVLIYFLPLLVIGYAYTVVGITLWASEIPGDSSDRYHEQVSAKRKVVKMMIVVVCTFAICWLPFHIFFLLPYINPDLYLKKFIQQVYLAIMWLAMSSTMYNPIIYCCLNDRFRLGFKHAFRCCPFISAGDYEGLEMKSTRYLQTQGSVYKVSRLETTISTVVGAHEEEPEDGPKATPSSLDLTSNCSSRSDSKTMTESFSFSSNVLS

Turning to `CCCCN(CCCC)C(=O)CN1[C@H](c2cc(OC)c3c(c2)OCO3)C[C@@H](C(=O)O)[C@@H]1CC(C)(C)CCC`, the inhibition in test [1] was less than 10%; in the test filed under Rattus norvegicus, 18%; in [5], less than 10%; in [6] it was less than 10%; in test [7], less than 10%; in the test listed under Homo sapiens [10], 61%. The inhibition in [11] is less than 10%; in test [12], 32%; in [13] it was less than 10%; in test [14], less than 10%; in test [15], less than 10%; in [16] it was less than 10%. The inhibition is less than 10% in [17]; less than 10% in test [18]; less than 10% in the test filed under Homo sapiens [19]; less than 10% in test [20]; 62% in test [21]. In addition, the half-inhibitory concentration (IC50) in test [2] came to 16.7 µM. Besides, the result in test [3] was inactive. The Kb in test [4] is 26.9 µM. The outcome in [8] was Active. The Bmax entry in test [9] was “inactive”.
